Measurements reported in patent publication US6387935B1, “Polycyclic dihydrothiazoles having substituted alkyl radicals in the two-position, process for their preparation, and their use as pharmaceuticals” (Aventis Pharma Deutschland GmbH, priority 1999, dated 2002).
Values joined by “and” are separate entries in the source; they are usually repeats but may differ in a detail not shown here. Equal entries are not always repeated.

Columns and labels:
NMRI mice = assay: Anorectic action: cumulated evaporated milk consumption after oral administration; type: in vivo; conditions: for cumulated milk consumption of the treated animals (male): oral dose 50 mg/kg via stomach tube, male NMRI mice after 24 hours feed withdrawal, milk offered 30 minutes after dosing, consumption determined half-hourly for 7 hours; for Reduction of the cumulated milk consumption in % of the control: oral dose 50 mg/kg, male NMRI mice, compared with untreated control animals
Experimental: The anorectic action was tested on male or female NMRI mice. After withdrawal of feed for 24 hours, the test preparation was administered via a stomach tube. Kept individually and with free access to drinking water, the animals were offered evaporated milk 30 minutes after giving the preparation. The consumption of evaporated milk was determined half-hourly for 7 hours and the general condition of the animals was observed. The measured milk consumption was compared with that of the untreated control animals.

SMILES	melting point	cumulated milk consumption of the treated animals (male) (NMRI mice; 50 mg/kg)	Reduction of the cumulated milk consumption in % of the control (NMRI mice; 50 mg/kg)	cumulated milk consumption of the treated animals (male) (NMRI mice; Hydrobromide, 50 mg/kg)	Reduction of the cumulated milk consumption in % of the control (NMRI mice; Hydrobromide, 50 mg/kg)	cumulated milk consumption of the treated animals (male) (NMRI mice)	Reduction of the cumulated milk consumption in % of the control (NMRI mice)
CC(C)(C)c1ccc(OCC2=NC3(O)c4ccc(Cl)cc4CC3S2)cc1 (single isomer, unassigned) [Example 3]	–	5/0.78 ml	73%	–	–	–	–
Br.OC12N=C(COc3ccc(Cl)cc3Cl)SC1Cc1cc(Cl)ccc12 (stereo not shown) [Example 2]	–	5/0.34 ml	88%	–	–	–	–
OC12N=C(COc3ccccc3)SC1Cc1cc(Cl)ccc12 (stereo not shown) [Example 1, 6-chloro-2-phenoxymethyl-8,8a-dihydroindeno[1,2-d]thiazol-3a-ol]	121 °C	–	–	–	–	5/0.42 ml	86%

Continued, in another order:

melting point	SMILES	cumulated milk consumption of the treated animals (male) (NMRI mice; 50 mg/kg)	Reduction of the cumulated milk consumption in % of the control (NMRI mice; 50 mg/kg)	cumulated milk consumption of the treated animals (male) (NMRI mice; Hydrobromide, 50 mg/kg)	Reduction of the cumulated milk consumption in % of the control (NMRI mice; Hydrobromide, 50 mg/kg)	cumulated milk consumption of the treated animals (male) (NMRI mice)	Reduction of the cumulated milk consumption in % of the control (NMRI mice)
123 °C and 122 to 124 °C	CC(C)(C)c1ccc(OCC2=NC3(O)c4ccc(Cl)cc4CC3S2)cc1 (single isomer, unassigned) [Example 9, 2-(4-tert-butylphenoxymethyl)-6-chloro-8,8a-dihydroindeno [1,2-d]thiazol-3a-ol]	5/0.26 ml	93%	–	–	–	–
170 °C	Br.OC12N=C(COc3ccc(Cl)cc3Cl)SC1Cc1cc(Cl)ccc12 (stereo not shown) [Example 6, 6-Chloro-2-(2,4-dichlorophenoxymethyl)-8,8a-dihydroindeno[1,2-d]thiazol-3a-ol Hydrobromide]	–	–	5/0.22 ml	95%	–	–
102 to 104 °C and 102 °C	OC12N=C(CSCc3ccccc3)SC1Cc1cc(Cl)ccc12 (stereo not shown) [Example 12, 2-Benzylsulfanylmethyl-6-chloro-8,8a-dihydroindeno [1,2-d]thiazol-3a-ol]	–	–	–	–	5/1.36 ml	71%
